In patent publication US10682362B2, “Treatments and diagnostics for cancers” (Wayne State University, priority 2015, dated 2020):
Read-outs that look alike come from different tables or passages of the source. Where a SMILES comes first, the peptide text is derived from it. The star is where a group is joined. Cbz = O=C(OCc1ccccc1)*

Legend:
proteasome [1] = target: T1, proteasome (Homo sapiens, UniProt P28072+P28074+Q99436); assay: cellular proteasomal CT-like, PGPH-like and T-like activities in 22Rv1 cells; assay type: cell-based; design: endogenous in cells; host or cells: 22Rv1; settings: for inhibition at 20 µM: 22Rv1, 22Rv1 cells, 20 μM Gal
T1 sequence (P28074 60-263): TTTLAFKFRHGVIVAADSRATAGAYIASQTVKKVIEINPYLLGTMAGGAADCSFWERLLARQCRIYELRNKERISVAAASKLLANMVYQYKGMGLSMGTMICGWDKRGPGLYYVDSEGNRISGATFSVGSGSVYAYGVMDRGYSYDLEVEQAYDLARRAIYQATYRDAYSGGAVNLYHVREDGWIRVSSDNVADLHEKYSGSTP
T1 sequence (P28072 1-239): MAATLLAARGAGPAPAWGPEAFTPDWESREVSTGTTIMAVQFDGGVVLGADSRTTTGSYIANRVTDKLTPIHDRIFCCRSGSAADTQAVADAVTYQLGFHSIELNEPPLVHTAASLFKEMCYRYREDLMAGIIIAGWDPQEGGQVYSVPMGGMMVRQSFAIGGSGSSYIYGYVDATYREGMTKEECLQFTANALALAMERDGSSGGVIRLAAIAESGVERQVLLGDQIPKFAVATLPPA
T1 sequence (Q99436 44-277): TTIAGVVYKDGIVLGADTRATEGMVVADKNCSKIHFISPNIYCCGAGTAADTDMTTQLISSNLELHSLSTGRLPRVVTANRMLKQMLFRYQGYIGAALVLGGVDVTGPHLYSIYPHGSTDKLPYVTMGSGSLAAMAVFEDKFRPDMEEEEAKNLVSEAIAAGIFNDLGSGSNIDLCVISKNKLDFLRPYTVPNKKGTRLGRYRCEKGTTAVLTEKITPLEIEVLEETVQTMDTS
From the text: (§1) FIGS. 11A-11D. […] Actin was used a load control (b). […] (f) Actin, loading control.

22Rv1 cells [2] = assay: morphological changes and crystal violet staining of 22Rv1 cells; assay type: cell-based; settings: bortezomib 2.5 or 5 nM, Gal 20 μM, 24 h and 48 h
From the text: In 12C, cells were fixed with formalin, and then stained with violet overnight.

AR-V7 protein [3] = settings: 22Rv1 cells, 20 μM Gal; 40 μM calpeptin or PD 66 h; 50 μM ALLM or pan-caspase inhibitor up to 72 h
From the text: Western blotting with anti-N20/AR antibody to examine levels of AR and AR-V7 proteins in various prostate cancer cell lines. […] This was followed by Western blotting with specific AR-V7 antibody, with Actin as a loading control.
Western blotting. (a, b) AR-V7 and AR protein levels determined by AR-V7 specific antibody and N20 antibody, respectively. (c) PARP/p89 is a caspase-3 cleavage fragment while PARP/p65 is a calpain cleavage product. (d) Caspase-3 cleavage fragment of Spectrin α2/p120, and a 150 fragment by either caspase-3 or calpain cleavage. (e) Autolysis of calpain small subunit (Cal Sm) to p28 fragment. (f) Calpain cleavage fragment of Calpastatin/p70. […] Caspase-3 activity assay.
In C, (a) Cell lysates were derivatized with 2,4-dinitrophenylhydrazine (DNPH), followed by Western blotting to determine the levels of oxidized proteins (Oxi-P). Actin was used a load control (b). AR-V7 levels were determined by AR-V7 specific antibody (c). PARP/p89 is caspase-3 cleavage fragment while PARP/p65 is calpain cleavage product (d). (e) Autolysis of calpain small subunit (Cal Sm) to p28 fragment. (f) Actin, loading control.

metastatic CRPC [4] = settings: cited from earlier work
[5] = test system: full length AR (AR-FL) protein; assay: Western blotting of full length AR (anti-AR N20) in 22Rv1 cells; assay type: cell-based
[6] = test system: 19S proteasome-associated DUB; assay: DUBs activity of purified 26S proteasome (Ub-AMC substrate); assay type: biochemical
Description: (§2) FIGS. 10A-10E. […] Purified 20S proteasome was used a control; BG, background (10D).
(§3) Then deubiquitinase (DUBs) activity associated with the 19S proteasome was determined by using the purified 26S proteasome.

proteasome [7] = assay: proteasome CT-like activity in protein extract of 22Rv1 cells; assay type: biochemical; settings: high concentrations (50 or 100 μM)
[8] = test system: BTZ-resistant MM 8826 cells; assay: cell proliferation by MTS in BTZ-resistant MM cells; assay type: cell-based; settings: Gal alone at 10 or 20 μM, 24 h
Description: FIGS. 13A-C. […] Cell proliferation was determined by MTS. […] Cell death was determined by detection of PARP cleavage. […] Actin was used as loading control.
8826-7BR is a multiple myeloma cell line developed resistance to bortezomib. […] This finding has high translational potential to clinics.

purified 20S proteasome = purified 20S proteasome (Homo sapiens, UniProt P28072+P28074+Q99436); assay: proteasome activities of purified 20S proteasome; assay type: biochemical; settings: 15 min
Description: as §2, §3

[9] = test system: CRPC with C-terminal AR loss; settings: Phase 2 ARMOR2; cited from earlier work
DUBs = assay: DUB activity in 22Rv1 cells; assay type: cell-based; settings: 20 μM Gal
Description: as §1
(§4) Sustained DUBs inhibition was detected for up to 48 h (FIG. 11A). […] AR-V7 protein level remained subtle changes up to 56 h and decreased after 64-68 h, and completely depleted after 72 h (FIG. 11C, c). […] Consistently, caspase-3-specific cleavage fragments, 89 kD fragment of PARP (PARP/p89) were also detected between 48 and 72 h (FIG. 11C, d). Calpain activation is associated with self-autolysis of its small subunit. […] This finding has important clinical significance.

22Rv1 cells [10] = assay: cell proliferation by MTT in 22Rv1 cells; assay type: cell-based; settings: Gal alone, 24 h
[11] = test system: oxidized proteins (Oxi-P); assay: oxidized proteins (DNPH derivatization, Western blotting) in 22Rv1 cells; assay type: cell-based; settings: 20 μM Gal
Description: as §1, §4

purified 26S proteasome = purified 26S proteasome (Homo sapiens, UniProt P28072+P28074+Q99436); assay: proteasome activities of purified 26S proteasome; assay type: biochemical; settings: 15 min
Description: as §2, §3

caspase-3 = assay: Caspase-3 activity assay in 22Rv1 cells; assay type: cell-based; settings: 20 μM Gal
proteasome [12] = target: T1, proteasome; assay: cellular proteasomal activities in VCaP cells; assay type: cell-based; design: endogenous in cells; settings: 5-20 μM Gal, 72 h
From the text: Therefore, Gal-induced proteasome inhibition occurs prior to activation of calpain/caspases and loss of AR-V7 protein (FIGS. 4 vs. 2).

calpain [13] = assay: calpain activation by cleavage fragments (Western blotting) in 22Rv1 cells; assay type: cell-based; settings: 20 μM Gal, same time points as p28 (48 to 72 h)
metastatic CRPC [14] = settings: phase III clinical trials; versus 10.9 months placebo; cited from earlier work
proteasome [15] = settings: cited from earlier work
calpain [16] = settings: cited from earlier work
AR-V7 = settings: 5 μM of MG132; cited from earlier work
AR-V7 protein [17] = assay: Western blotting of AR-V7 in nuclear and cytosolic fractions of 22Rv1 cells; assay type: cell-based; settings: for rescue of Gal-induced nuclear AR-V7 loss: androgen-starved 22Rv1 cells, 20 μM Gal plus 40 μM calpeptin or 20 μM Z-VAD
From the text: Nuclear fractions were isolated and separated by Western blotting to determine AR-V7 levels. Actin was used as a loading control.

Which “proteasomal CT-like activity” value (proteasome [1]; 22Rv1 cells, BTZ alone, 48 h) does the source give for CC(C)C[C@H](NC(=O)[C@H](Cc1ccccc1)NC(=O)c1cnccn1)B(O)O [BTZ] here?
Its value is “caused proteasomal CT-like inhibition”.

What about the “proteasomal chymotrypsin (CT)-like activity” value (proteasome [1]; 22Rv1 cells, BTZ alone, 72 h) of the same molecule?
Its value is “dose-dependent inhibition”.

And the “morphological changes / cell death” value (22Rv1 cells [2])?
The value was “did not cause apparent morphological changes”.

For CSCC[C@@H](C=O)NC(=O)[C@H](CC(C)C)NC(=O)[C@H](CC(C)C)NC(C)=O [ALLM, N-acetyl-L-leucyl-L-leucyl-L-methioninal] (Ac-Leu-Leu-Met-aldehyde), which “rescue of Gal-induced AR-V7 loss by inhibitor” value (AR-V7 protein [3]) is on record?
Its value is “rescue AR-V7 loss partially”.

With CNC(=O)c1ccc(N2C(=S)N(c3ccc(C#N)c(C(F)(F)F)c3)C(=O)C2(C)C)cc1F [Enzalutamide] as the molecule, how does the “patients with PSA level decreased more than 50%” value (metastatic CRPC [4]; chemo-naive patients) read?
The value was 40/65.

What about the “patients with PSA level decreased more than 50%” value (metastatic CRPC [4]; chemotherapy-treated patients) of the same molecule?
Its value is 38/75.

What about the “lived longer than those taking placebo” value (metastatic CRPC [4]; interim analysis) of the same molecule?
Its value is “approximately 5 months”.

Which “time after which full length AR (AR-FL) protein decreased” value ([5]; 20 μM Gal for up to 72 h) does the source give for C[C@]12CC[C@H](O)CC1=CC[C@@H]1[C@@H]2CC[C@]2(C)C(n3cnc4ccccc43)=CC[C@@H]12 [Gal, (3S,8R,9S,10R,13S,14S)-17-(benzimidazol-1-yl)-10,13-dimethyl-2,3,4,7,8,9,11,12,14,15-decahydro-1H-cyclopenta[a]phenanthren-3-ol] here?
The value was no less than 48 h.

What about the “AR-FL protein expression in cytosolic and nuclear fractions” value ([5]; 20 μM Gal, anti-AR N20 antibody) of the same molecule?
The value was “a decrease in both cytosolic and nuclear AR-FL protein expression”.

What about the “DUBs activity of purified 26S proteasome” value ([6]; Gal 20 μM, 15 min) of the same molecule?
Its value is “suppressed”.

What about the “DUBs activity of purified 26S proteasome” value ([6]; Gal at a low dose (10 μM)) of the same molecule?
The value was “could efficiently inhibit DUBs activity”.

What about the “CT-like activity of the proteasome” value (proteasome [7]) of the same molecule?
Its value is “could inhibit the CT-like activity”.

And the “sensitivity of BTZ-resistant MM cells (MTS)” value [8]?
Its value is “sensitive to Gal treatment alone”.

What about the “three proteasomal activities (CT, PGPH and T-like)” value (purified 20S proteasome) of the same molecule?
Its value is “unable to block all the three proteasomal activities”.

What about the “response of Abi- and Enz refractory CRPC patients with C-terminal AR loss” value [9] of the same molecule?
Its value is “remain responsive”.

What about the “earliest time of DUBs inhibition” value (DUBs) of the same molecule?
The value was no more than 2 h.

And the “sustained DUBs inhibition detected up to” value (DUBs)?
Its value is “up to 48 h”.

And the inhibition at 20 µM (proteasome [1]; after 64 h)?
Its inhibition at 20 µM is greater than 50%.

And the inhibition at 20 µM (proteasome [1]; at 48 h)?
Its inhibition at 20 µM is 30%.

And the inhibition at 20 µM (proteasome [1]; between 2-24 h)?
The inhibition at 20 µM was 10%.

What about the “proteasomal CT-like activities, time course” value (proteasome [1]; 22Rv1 cells, 20 μM Gal up to 72 h) of the same molecule?
The value was “inhibited in a time-dependent fashion, but later than DUBs inhibition”.

And the “proteasomal CT-like activity” value (proteasome [1]; 22Rv1 cells, 5-20 μM Gal, 24 h)?
Its value is “dose-dependent decrease”.

And the “proteasomal PGPH-like activity” value (proteasome [1]; 22Rv1 cells, 5-20 μM Gal, 24 h)?
The value was “dose-dependent decrease”.

And the “proteasomal trypsin (T)-like activity” value (proteasome [1]; 22Rv1 cells, 5-20 μM Gal, 24 h)?
Its value is “but not trypsin (T)-like activities”.

And the “all three proteasomal activities” value (proteasome [1]; 22Rv1 cells, 5-20 μM Gal, 48 h)?
Its value is “decreased in a Gal dose-dependent fashion”.

What about the “cell proliferation (MTT)” value (22Rv1 cells [10]) of the same molecule?
The value was “did not inhibit cell proliferation”.

What about the “morphological changes / cell death” value (22Rv1 cells [2]) of the same molecule?
The value was “did not cause apparent morphological changes”.

What about the “sustained accumulation of oxidized proteins detected up to” value [11] of the same molecule?
Its value is “up to 72 h”.

What about the “time before which oxidized proteins accumulated” value [11] of the same molecule?
The value was less than 2 h.

What about the “three proteasomal activities (CT, PGPH and T-like)” value (purified 26S proteasome) of the same molecule?
Its value is “unable to block all the three proteasomal activities”.

And the “time after which caspase-3 activity increased” value (caspase-3)?
Its value is no less than 24 h.

And the “time at which caspase-3 activity reached the highest” value (caspase-3)?
Its value is 48 h.

And the caspase-3 activation (caspase-3; after 48 h)?
The caspase-3 activation was 5 fold.

What about the three proteasomal activities (proteasome [12]) of the same molecule?
The three proteasomal activities was “dose-dependent inhibition”.

What about the “calpain cleavage product Calpastatin/p70” value (calpain [13]) of the same molecule?
The value was “detected at the same time points”.

With CC(=O)O[C@H]1CC[C@@]2(C)C(=CC[C@@H]3[C@@H]2CC[C@]2(C)C(c4cccnc4)=CC[C@@H]32)C1 [abiraterone acetate] as the molecule, how does the median survival (metastatic CRPC [14]) read?
The median survival was 14.8 months.

Which “rescue of Gal-induced AR-V7 loss by inhibitor” value (AR-V7 protein [3]) does the source give for O=C(O)/C(S)=C/c1ccc(I)cc1 [PD150606] here?
The value was “rescue AR-V7 loss partially”.

Which IC50 (proteasome [15]) does the source give for CC(C)C[C@@H](C=O)NC(=O)[C@H](CC(C)C)NC(=O)[C@H](CC(C)C)NC(=O)OCc1ccccc1 [MG132] (Cbz-Leu-Leu-Leu-aldehyde) here?
Its IC50 is 0.1 µM.

And the IC50 (calpain [16])?
The IC50 was 1.2 µM.

And the “inhibition of Gal-induced AR-V7 degradation” value (AR-V7)?
The value was “could be inhibited”.

Which results are given for CCCC[C@@H](C=O)NC(=O)[C@H](CC(C)C)NC(=O)OCc1ccccc1 [calpeptin, Z-Leu-Nle-CHO]?
rescue of Gal-induced AR-V7 loss by inhibitor (AR-V7 protein [3]): rescue AR-V7 loss partially; block of Gal-induced nuclear AR-V7 depletion (AR-V7 protein [17]; 22Rv1 cells, 20 μM Gal plus 40 μM calpeptin, 56 h and 72 h): could be blocked; rescue of Gal-induced nuclear AR-V7 loss (AR-V7 protein [17]): partially rescued AR-V7 loss by Gal

For Z-VAD, which “rescue of Gal-induced nuclear AR-V7 loss” value (AR-V7 protein [17]) is on record?
The value was “able to block the Gal-induced AR-V7 depletion”.
